The results in this text go back to patent US20250188094A1, “PYRAZOLE MEMBRANE-ASSOCIATED TYROSINE-AND THREONINE-SPECIFIC CDC2-INHIBITORY KINASE (PKMYT1) INHIBITORS AND USES THEREOF” (Insilico Medicine IP Limited, priority 2022, published 2025).

The structures appear in SMILES notation. A value given as a limit tells only on which side of the number the result lay.

In one assay the target is PKMYT1 (Homo sapiens (Human), UniProt Q99640). In words: PKMYT1 HTRF Assay. Type of assay: binding. The settings on record: Tracer 178, GST-Tb, read-out: MYT1 HTRF IC50. The procedure: Example A: PKMYT1 HTRF Assay
Compound serial dilution was performed by Echo, and the final concentrations vary from 10 μM to 0.5 nM. This was filled by the addition of 5 μL/well of Enzyme solution to the assay plate containing the compound. The plate was centrifuged at 1000 rpm for 1 minute, and incubate 15 minutes at 25° C. Then 5 μL/well of tracer solution (Tracer 178) was added to initiate the reaction, and incubate for 60 minutes at 25° C. Next 5 μL GST-Tb was added into the assay plate, the plate was centrifuged at 1000 rpm for 1 minute, and incubate for 15 minutes at 25° C. The assay plate was read on Envision.
Background: Time-resolved FRET reads energy transfer from a long-lived donor to a nearby acceptor.

The target of a further assay is WEE1 (Homo sapiens (Human), UniProt P30291). The assay is described as follows: WEE1 ADP-Glo Assay. Type of assay: biochemical. The note with it: luminescence. The procedure:
Example B: WEE1 ADP-Glo Assay
Compound serial dilution is performed by Echo, and the final concentrations vary from 10 μM to 0.5 nM. This was filled by the addition of 5 μL/well of Enzyme solution to the assay plate containing the compound. The plate was centrifuged at 1000 rpm for 1 minute, and incubate 15 minutes at 25° C. Then 5 μL/well of substrate solution was added to initiate the reaction, and incubate for 60 minutes at 25° C. Next 10 μL kinase detection reagent was added into the assay plate, the plate was centrifuged at 1000 rpm for 1 minute, and incubate for 60 minutes at 25° C. The assay plate was read on Envision for US LUM as RLU.
On the technique in general: ADP-Glo first removes unused ATP, then detects ADP through luciferase.

WEE1, sequence (P30291 whole entry, species assumed): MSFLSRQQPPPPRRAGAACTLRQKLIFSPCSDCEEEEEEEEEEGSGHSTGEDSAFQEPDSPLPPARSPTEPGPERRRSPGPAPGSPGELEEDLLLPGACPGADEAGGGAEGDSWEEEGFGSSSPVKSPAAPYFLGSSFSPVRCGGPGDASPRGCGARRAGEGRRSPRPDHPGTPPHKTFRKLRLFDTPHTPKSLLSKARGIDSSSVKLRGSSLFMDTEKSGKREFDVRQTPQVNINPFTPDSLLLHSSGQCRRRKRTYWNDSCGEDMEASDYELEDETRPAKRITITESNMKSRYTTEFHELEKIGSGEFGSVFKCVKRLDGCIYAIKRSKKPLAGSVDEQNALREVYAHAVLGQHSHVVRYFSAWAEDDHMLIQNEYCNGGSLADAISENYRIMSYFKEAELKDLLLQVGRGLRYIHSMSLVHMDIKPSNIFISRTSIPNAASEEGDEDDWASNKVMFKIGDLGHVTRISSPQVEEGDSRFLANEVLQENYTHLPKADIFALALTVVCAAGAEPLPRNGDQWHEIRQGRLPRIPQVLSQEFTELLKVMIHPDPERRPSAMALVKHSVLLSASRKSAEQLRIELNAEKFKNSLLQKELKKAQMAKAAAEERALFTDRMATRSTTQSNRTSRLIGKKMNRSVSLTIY
PKMYT1, sequence (Q99640 whole entry, species assumed): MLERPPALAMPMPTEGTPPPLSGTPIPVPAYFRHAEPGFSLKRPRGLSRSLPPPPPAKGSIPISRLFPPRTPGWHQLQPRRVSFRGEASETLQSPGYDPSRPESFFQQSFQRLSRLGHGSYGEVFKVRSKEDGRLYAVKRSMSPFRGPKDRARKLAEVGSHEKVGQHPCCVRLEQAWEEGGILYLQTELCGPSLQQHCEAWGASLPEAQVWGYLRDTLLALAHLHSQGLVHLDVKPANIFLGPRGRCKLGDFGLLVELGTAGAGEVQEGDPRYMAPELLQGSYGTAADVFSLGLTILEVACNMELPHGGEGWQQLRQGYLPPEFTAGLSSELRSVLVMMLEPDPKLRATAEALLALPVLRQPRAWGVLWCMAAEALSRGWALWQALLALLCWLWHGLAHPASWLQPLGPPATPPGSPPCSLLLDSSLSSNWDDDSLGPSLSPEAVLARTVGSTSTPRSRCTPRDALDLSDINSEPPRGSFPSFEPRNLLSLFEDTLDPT

By IC50 is commonly meant the concentration that inhibits the measured activity by half. Regarding `Cc1ccc(O)c(C)c1-n1nc(-c2nccs2)c(C(N)=O)c1N` [Example 1, 5-amino-1-(3-hydroxy-2,6-dimethylphenyl)-3-(thiazol-2-yl)-1H-pyrazole-4-carboxamide], the results for the IC50 at PKMYT1 and against WEE1 were under 10 nM and 50 to 500 nM, respectively.

At WEE1, `Cc1ccc(O)c(C)c1-n1nc(-c2nccs2)c(C(N)=O)c1N` [Example 2, 5-amino-1-(3-hydroxy-2,6-dimethylphenyl)-3-(thiazol-2-yl)-1H-pyrazole-4-carboxamide] gave an IC50 of 50 to 500 nM. Take `Cc1ccc(O)c(C)c1-n1nc(-c2nc(C(F)(F)F)cs2)c(C(N)=O)c1N` [Example 3, 5-amino-1-(3-hydroxy-2,6-dimethylphenyl)-3-(4-(trifluoromethyl)thiazol-2-yl)-1H-pyrazole-4-carboxamide]: the figures for the IC50 on PKMYT1 and on WEE1 were under 10 nM and 50 to 500 nM, respectively. Take `Cc1csc(-c2nn(-c3c(C)ccc(O)c3C)c(N)c2C(N)=O)n1` [Example 4, 5-amino-1-(3-hydroxy-2,6-dimethylphenyl)-3-(4-methylthiazol-2-yl)-1H-pyrazole-4-carboxamide]: the IC50 at PKMYT1 was under 10 nM. Turning to `Cc1cnc(-c2nn(-c3c(C)ccc(O)c3C)c(N)c2C(N)=O)s1` [Example 5, 5-amino-1-(3-hydroxy-2,6-dimethylphenyl)-3-(5-methylthiazol-2-yl)-1H-pyrazole-4-carboxamide], the IC50 on PKMYT1 was under 10 nM.

As for `Cc1c(O)ccc(Cl)c1-n1nc(-c2nccs2)c(C(N)=O)c1N` [Example 6, 5-amino-1-(6-chloro-3-hydroxy-2-methylphenyl)-3-(thiazol-2-yl)-1H-pyrazole-4-carboxamide], the figures for the IC50 at PKMYT1 and against WEE1 were under 10 nM and 50 to 500 nM, respectively. As to `Cc1ccc(O)c(C)c1-n1nc(-c2nc3cnccc3s2)c(C(N)=O)c1N` [Example 7, 5-amino-1-(3-hydroxy-2,6-dimethylphenyl)-3-(thiazolo[4,5-c]pyridin-2-yl)-1H-pyrazole-4-carboxamide], the IC50 was 10 to 50 nM at PKMYT1 and 500 to 5000 nM against WEE1. With `Cc1ccc(O)c(C)c1-n1nc(-c2ccn(CC(C)(C)O)n2)c(C(N)=O)c1N` [Example 8, 5-amino-1-(3-hydroxy-2,6-dimethylphenyl)-1′-(2-hydroxy-2-methylpropyl)-1H,1′H-[3,3′-bipyrazole]-4-carboxamide], the IC50 on PKMYT1 was 50 to 500 nM; against WEE1 it was over 5000 nM. For `Cc1ccc(O)c(C)c1-n1nc(-c2ccn(C(F)F)n2)c(C(N)=O)c1N` [Example 9, 5-amino-1′-(difluoromethyl)-1-(3-hydroxy-2,6-dimethylphenyl)-1H,1′H-[3,3′-bipyrazole]-4-carboxamide], the IC50 at PKMYT1 is under 10 nM; on WEE1, 50 to 500 nM. Regarding `Cc1ccc(O)c(C)c1-n1nc(-c2ccc(C(F)(F)F)cn2)c(C(N)=O)c1N` [Example 10, 5-amino-1-(3-hydroxy-2,6-dimethylphenyl)-3-(5-(trifluoromethyl)pyridin-2-yl)-1H-pyrazole-4-carboxamide], the IC50 at PKMYT1 is 10 to 50 nM; against WEE1, 500 to 5000 nM. With `Cc1ccc(O)c(C)c1-n1nc(-c2ncc3n2CCCC3)c(C(N)=O)c1N` [Example 11, 5-amino-1-(3-hydroxy-2,6-dimethylphenyl)-3-(5,6,7,8-tetrahydroimidazo[1,5-a]pyridin-3-yl)-1H-pyrazole-4-carboxamide], on PKMYT1, the IC50 was in the range of 50 to 500 nM.
